Results from ChEMBL document CHEMBL1201862, “PubChem BioAssay data set” (2004).
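A five-concentration, 48-hour dose response in 96-well plates underlies each endpoint, interpolated linearly between surrounding concentrations. At the GI50, growth is halved.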 The source made the active and inactive calls. No stated cut-off is given here; in the data, active = GI50 up to about 1.1 µM and inactive = higher.

How the values were obtained:
Experiment in all cases: NCI anticancer screen, dose series, 48 h
[1] = test system: OVCAR-8
[2] = test system: UO-31
[3] = test system: HL-60
[4] = test system: U-251
[5] = test system: DU-145
[6] = test system: NCI/ADR-RES
[7] = test system: CAKI-1
[8] = test system: NCI-H522
[9] = test system: K562
[10] = test system: CCRF-CEM
[11] = test system: SR
[12] = test system: NCI-H460
[13] = test system: SF-295
[14] = test system: SK-MEL-28
[15] = test system: MOLT-4
[16] = test system: OVCAR-3
[17] = test system: PC-3
[18] = test system: SNB-19
[19] = test system: OVCAR-5
[20] = test system: RXF 393

Q: How did the GI50 [1] turn out when `Nc1nc2c(C(=O)O)c3ccc([N+](=O)[O-])cc3c(=O)n2c2ccccc12` was run?
A: Its GI50 is 18.7 µM (inactive).

Q: And the GI50 [2]?
A: Its GI50 is 29.8 µM (inactive).

Q: What about the GI50 [3] of the same compound?
A: Its GI50 is 32.1 µM (inactive).

Q: And the GI50 [4]?
A: Its GI50 is 27.2 µM (inactive).

Q: What about the GI50 [5] of the same compound?
A: The GI50 was 16.5 µM (inactive).

Q: What about the GI50 [6] of the same compound?
A: The GI50 was 20.5 µM (inactive).

Q: What about the GI50 [7] of the same compound?
A: The GI50 was 34.4 µM (inactive).

Q: What about the GI50 [8] of the same compound?
A: Its GI50 is 19.9 µM (inactive).

Q: What about the GI50 [9] of the same compound?
A: The GI50 was 19.5 µM (inactive).

Q: What about the GI50 [10] of the same compound?
A: The GI50 was 42.1 µM (inactive).

Q: What about the GI50 [11] of the same compound?
A: Its GI50 is 24.3 µM (inactive).

Q: And the GI50 [12]?
A: The GI50 was 30.1 µM (inactive).

Q: And the GI50 [13]?
A: Its GI50 is 29.1 µM (inactive).

Q: What about the GI50 [14] of the same compound?
A: Its GI50 is 52.8 µM (inactive).

Q: What about the GI50 [15] of the same compound?
A: Its GI50 is 14.4 µM (inactive).

Q: What about the GI50 [16] of the same compound?
A: The GI50 was 21.1 µM (inactive).

Q: What about the GI50 [17] of the same compound?
A: The GI50 was 24.5 µM (inactive).

Q: And the GI50 [18]?
A: The GI50 was 28.5 µM (inactive).

Q: What about the GI50 [19] of the same compound?
A: Its GI50 is 31 µM (inactive).

Q: And the GI50 [20]?
A: Its GI50 is 14.5 µM (inactive).

Q: `NS(=O)(=O)c1ccc(NCc2cnc3ccccc3n2)cc1` was tested. Which GI50 [1] did it give?
A: The GI50 was > 100 µM (inactive).

Q: What about the GI50 [2] of the same compound?
A: Its GI50 is > 100 µM (inactive).

Q: And the GI50 [3]?
A: Its GI50 is > 100 µM (inactive).

Q: And the GI50 [4]?
A: The GI50 was > 100 µM (inactive).

Q: What about the GI50 [5] of the same compound?
A: The GI50 was > 100 µM (inactive).

Q: And the GI50 [6]?
A: Its GI50 is > 100 µM (inactive).

Q: And the GI50 [7]?
A: The GI50 was > 100 µM (inactive).

Q: And the GI50 [8]?
A: Its GI50 is > 100 µM (inactive).

Q: What about the GI50 [9] of the same compound?
A: Its GI50 is > 100 µM (inactive).

Q: And the GI50 [10]?
A: Its GI50 is > 100 µM (inactive).

Q: And the GI50 [11]?
A: Its GI50 is > 100 µM (inactive).

Q: And the GI50 [12]?
A: The GI50 was > 100 µM (inactive).

Q: What about the GI50 [13] of the same compound?
A: The GI50 was > 100 µM (inactive).

Q: And the GI50 [14]?
A: Its GI50 is > 100 µM (inactive).

Q: And the GI50 [15]?
A: The GI50 was > 100 µM (inactive).

Q: And the GI50 [16]?
A: The GI50 was > 100 µM (inactive).

Q: And the GI50 [17]?
A: Its GI50 is > 100 µM (inactive).

Q: And the GI50 [18]?
A: The GI50 was > 100 µM (inactive).

Q: What about the GI50 [19] of the same compound?
A: The GI50 was > 100 µM (inactive).

Q: What about the GI50 [20] of the same compound?
A: The GI50 was > 100 µM (inactive).

Q: With `C/C(=N\c1ccc(N(C)C)cc1)c1ccccc1` as the compound, how does the GI50 [1] read?
A: The GI50 was 35.4 µM (inactive).

Q: And the GI50 [2]?
A: The GI50 was 17.8 µM (inactive).

Q: What about the GI50 [3] of the same compound?
A: The GI50 was 16.4 µM (inactive).

Q: What about the GI50 [4] of the same compound?
A: Its GI50 is 22.5 µM (inactive).

Q: What about the GI50 [5] of the same compound?
A: The GI50 was 34.9 µM (inactive).

Q: What about the GI50 [6] of the same compound?
A: The GI50 was 27 µM (inactive).

Q: And the GI50 [7]?
A: The GI50 was 19.8 µM (inactive).

Q: And the GI50 [8]?
A: Its GI50 is 16.7 µM (inactive).

Q: And the GI50 [9]?
A: Its GI50 is 21.3 µM (inactive).

Q: What about the GI50 [10] of the same compound?
A: The GI50 was 17.7 µM (inactive).

Q: What about the GI50 [11] of the same compound?
A: Its GI50 is 19.2 µM (inactive).

Q: And the GI50 [12]?
A: Its GI50 is 81.1 µM (inactive).

Q: What about the GI50 [13] of the same compound?
A: The GI50 was 31.9 µM (inactive).

Q: And the GI50 [14]?
A: The GI50 was 33.7 µM (inactive).

Q: What about the GI50 [15] of the same compound?
A: The GI50 was 23.9 µM (inactive).

Q: And the GI50 [16]?
A: The GI50 was 17.8 µM (inactive).

Q: And the GI50 [17]?
A: The GI50 was 23.4 µM (inactive).

Q: And the GI50 [18]?
A: Its GI50 is 86.3 µM (inactive).

Q: And the GI50 [19]?
A: The GI50 was > 100 µM (inactive).

Q: What about the GI50 [20] of the same compound?
A: The GI50 was 5.35 µM (inactive).

Q: How did the GI50 [1] turn out when `COc1cc(O)c2c(=O)c3ccccc3n(C)c2c1` was run?
A: Its GI50 is 18.7 µM (inactive).

Q: What about the GI50 [2] of the same compound?
A: The GI50 was 6.85 µM (inactive).

Q: What about the GI50 [3] of the same compound?
A: The GI50 was > 100 µM (inactive).

Q: What about the GI50 [4] of the same compound?
A: Its GI50 is 29.4 µM (inactive).

Q: And the GI50 [5]?
A: Its GI50 is > 100 µM (inactive).

Q: What about the GI50 [6] of the same compound?
A: The GI50 was 32.7 µM (inactive).

Q: And the GI50 [7]?
A: The GI50 was > 100 µM (inactive).

Q: What about the GI50 [8] of the same compound?
A: The GI50 was 22.3 µM (inactive).

Q: What about the GI50 [9] of the same compound?
A: Its GI50 is > 100 µM (inactive).

Q: And the GI50 [10]?
A: The GI50 was 24 µM (inactive).

Q: And the GI50 [11]?
A: Its GI50 is 7.26 µM (inactive).

Q: And the GI50 [12]?
A: Its GI50 is 4.48 µM (inactive).

Q: And the GI50 [13]?
A: The GI50 was 27.7 µM (inactive).

Q: What about the GI50 [14] of the same compound?
A: The GI50 was > 100 µM (inactive).

Q: What about the GI50 [15] of the same compound?
A: Its GI50 is 8.43 µM (inactive).

Q: What about the GI50 [16] of the same compound?
A: Its GI50 is > 100 µM (inactive).

Q: What about the GI50 [17] of the same compound?
A: Its GI50 is > 100 µM (inactive).

Q: What about the GI50 [18] of the same compound?
A: The GI50 was 0.253 µM (active).

Q: What about the GI50 [19] of the same compound?
A: Its GI50 is > 100 µM (inactive).

Q: What about the GI50 [20] of the same compound?
A: Its GI50 is 14.9 µM (inactive).

Q: With `CN(CCCCN1CCCC1)CCCN(C)C(=O)Cc1ccc(Cl)c(Cl)c1` as the compound, how does the GI50 [1] read?
A: The GI50 was 24.4 µM (inactive).

Q: What about the GI50 [2] of the same compound?
A: Its GI50 is 1.95 µM (inactive).

Q: And the GI50 [3]?
A: Its GI50 is 15.3 µM (inactive).

Q: And the GI50 [4]?
A: The GI50 was 16 µM (inactive).

Q: And the GI50 [5]?
A: The GI50 was 37.1 µM (inactive).

Q: What about the GI50 [6] of the same compound?
A: The GI50 was > 100 µM (inactive).

Q: What about the GI50 [7] of the same compound?
A: Its GI50 is 21.1 µM (inactive).

Q: And the GI50 [8]?
A: Its GI50 is 13.1 µM (inactive).

Q: What about the GI50 [9] of the same compound?
A: The GI50 was 3.05 µM (inactive).

Q: What about the GI50 [10] of the same compound?
A: Its GI50 is 4.74 µM (inactive).

Q: What about the GI50 [11] of the same compound?
A: The GI50 was 3.3 µM (inactive).

Q: And the GI50 [12]?
A: Its GI50 is 16.3 µM (inactive).

Q: And the GI50 [13]?
A: The GI50 was 19.3 µM (inactive).

Q: What about the GI50 [14] of the same compound?
A: Its GI50 is 1.79 µM (inactive).

Q: What about the GI50 [15] of the same compound?
A: The GI50 was 8.91 µM (inactive).

Q: What about the GI50 [16] of the same compound?
A: The GI50 was 19.1 µM (inactive).

Q: What about the GI50 [17] of the same compound?
A: The GI50 was 19.1 µM (inactive).

Q: And the GI50 [18]?
A: The GI50 was 23.7 µM (inactive).

Q: And the GI50 [19]?
A: The GI50 was 29.6 µM (inactive).

Q: And the GI50 [20]?
A: Its GI50 is 12.7 µM (inactive).
